Experimental data from US20260241012A1, “1,8-NAPHTHYRIDIN-2-ONE HETEROBIFUNCTIONAL BCL6 DEGRADERS” (Treeline Biosciences, Inc., priority 2022, published 2026).

Molecular target: T1, N-terminal HiBiT tagged BCL6 (Homo sapiens, UniProt P41182)
T1 construct: expressed in transfected cells; host or cells: HT1080 (ATCC CCL-121), stably transduced with lentivirus pLV-UBC-N-HiBiT-BCL6-PGK-puro
Assay: HiBiT based degradation assay
Assay type: cell-based
Settings: HT1080 cells expressing N-terminal HiBiT tagged BCL6, 5 hours of incubation; for Ymin (5 hr): BCL6 degradation normalized with DMSO control; for DC50: four-parameter logistic model, read-out: EC50 (5 hr)
Summary of the method: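 Degradation measured by luminescence from the Nano-Glo HiBiT lytic reagent (15 min, room temperature), normalized to DMSO controls and fitted to a four-parameter curve.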

| SMILES | Ymin (5 hr) | DC50 [nM] |
| --- | --- | --- |
| CNC(=O)COc1cc2cc(Nc3nc(N4C[C@H](C)N(CC5CCN(c6cccc7c(C8CCC(=O)NC8=O)nn(C)c67)CC5)C[C@H]4C)ncc3Cl)cnc2n(C(C)C)c1=O (stereo partly drawn) [Compound 179a, 2-[[6-[[5-chloro-2-[(2R,5S)-4-[[1-[3-(2,6-dioxo-3-piperidyl)-1-methyl-indazol-7-yl]-4-piperidyl]methyl]-2,5-dimethyl-piperazin-1-yl]pyrimidin-4-yl]amino]-1-isopropyl-2-oxo-1,8-naphthyridin-3-yl]oxy]-N-methyl-acetamide] | +++ (30% ≤ Ymin < 50%) | 100 to 1000 |
| CNC(=O)COc1cc2cc(Nc3nc(N4C[C@@H](C)N(CC5CCN(c6cccc7c(C8CCC(=O)NC8=O)nn(C)c67)CC5)C[C@@H]4C)ncc3Cl)cnc2n(C(C)C)c1=O (stereo partly drawn) [Compound 179b, 2-[[6-[[5-chloro-2-[(2S,5R)-4-[[1-[3-(2,6-dioxo-3-piperidyl)-1-methyl-indazol-7-yl]-4-piperidyl]methyl]-2,5-dimethyl-piperazin-1-yl]pyrimidin-4-yl]amino]-1-isopropyl-2-oxo-1,8-naphthyridin-3-yl]oxy]-N-methyl-acetamide] | +++ (30% ≤ Ymin < 50%) | 100 to 1000 |
| CNC(=O)COc1cc2cc(Nc3nc(N4CC5(CCC(Oc6cccc7c(C8CCC(=O)NC8=O)nn(C)c67)CC5)C4)ncc3Cl)cnc2n(C(C)C)c1=O (centres unmarked) [Compound 181, 2-[[6-[[5-chloro-2-[7-[3-(2,6-dioxo-3-piperidyl)-1-methyl-indazol-7-yl]oxy-2-azaspiro[3.5]nonan-2-yl]pyrimidin-4-yl]amino]-1-isopropyl-2-oxo-1,8-naphthyridin-3-yl]oxy]-N-methyl-acetamide] | +++ (30% ≤ Ymin < 50%) | 10 to 100 |
| CNC(=O)COc1cc2cc(Nc3nc(N4CC5(CCC(Oc6ccc7c(C8CCC(=O)NC8=O)nn(C)c7c6)CC5)C4)ncc3Cl)cnc2n(C(C)C)c1=O (centres unmarked) [Compound 183, 2-[[6-[[5-chloro-2-[7-[3-(2,6-dioxo-3-piperidyl)-1-methyl-indazol-6-yl]oxy-2-azaspiro[3.5]nonan-2-yl]pyrimidin-4-yl]amino]-1-isopropyl-2-oxo-1,8-naphthyridin-3-yl]oxy]-N-methyl-acetamide] | ++++ (Ymin < 30%) | < 10 |
| CNC(=O)COc1cc2cc(Nc3nc(N4CC5(CCC(Nc6cc7c(cc6F)c(C6CCC(=O)NC6=O)nn7C)CC5)C4)ncc3Cl)cnc2n(C(C)C)c1=O (centres unmarked) [Compound 184, 2-[[6-[[5-chloro-2-[7-[[3-(2,6-dioxo-3-piperidyl)-5-fluoro-1-methyl-indazol-6-yl]amino]-2-azaspiro[3.5]nonan-2-yl]pyrimidin-4-yl]amino]-1-isopropyl-2-oxo-1,8-naphthyridin-3-yl]oxy]-N-methyl-acetamide] | ++++ (Ymin < 30%) | < 10 |

More lines, now with the values ahead:

| Ymin (5 hr) | DC50 [nM] | SMILES |
| --- | --- | --- |
| +++ (30% ≤ Ymin < 50%) | < 10 | CNC(=O)COc1cc2cc(Nc3nc(N4CCC(O)(CN5CCN(c6cccc7c(C8CCC(=O)NC8=O)nn(C)c67)CC5)CC4)ncc3Cl)cnc2n(C(C)C)c1=O (centres unmarked) [Compound 178, 2-[[6-[[5-chloro-2-[4-[[4-[3-(2,6-dioxo-3-piperidyl)-1-methyl-indazol-7-yl]piperazin-1-yl]methyl]-4-hydroxy-1-piperidyl]pyrimidin-4-yl]amino]-1-isopropyl-2-oxo-1,8-naphthyridin-3-yl]oxy]-N-methyl-acetamide] |
| ++++ (Ymin < 30%) | < 10 | CNC(=O)COc1cc2cc(Nc3nc(N4CC5(CCC(Nc6ccc7c(C8CCC(=O)NC8=O)nn(C)c7c6)CC5)C4)ncc3Cl)cnc2n(C(C)C)c1=O (centres unmarked) [Compound 182, 2-((6-((5-chloro-2-(7-((3-(2,6-dioxopiperidin-3-yl)-1-methyl-1H-indazol-6-yl)amino)-2-azaspiro[3.5]nonan-2-yl)pyrimidin-4-yl)amino)-1-isopropyl-2-oxo-1,2-dihydro-1,8-naphthyridin-3-yl)oxy)-N-methylacetamide] |
